For one test, the target named is T1, Human CARM1 (PRMT4) (Homo sapiens, UniProt Q86X55).
T1 construct: Flag-CARM1-His was eluted with 200 ug/ml FLAG peptide in buffer A; made in house; host or cells: HEK 293F cells infected with recombinant baculovirus (pFastBacMam)
Nature of the test: CARM1 enzyme assay on peptide substrate (3H-SAM Flashplate). Particulars: CARM1 0.25 nM, 3H-SAM 30 nM, peptide 250 nM; read-out: Biochem IC50. The test is classed as biochemical. In a few lines: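 Flag-CARM1-His (isoform 1, Δ539-561; HEK293F-expressed), 0.25 nM, preincubated 30 min RT with compound, then 30 nM 3H-SAM and 250 nM biotinylated H3(16-30) R26me1 peptide in pH 7.6 Bicine buffer, 2% DMSO. Stopped with 300 uM cold SAM; streptavidin Flashplate capture, cpm. % inhibition vs DMSO/1 mM SAH, 3- or 4-parameter fit.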

In test [1] the test system is asymmetric di-methyl PABP1 in RKO cells. Nature of the test: RKO methylation assay (In Cell Western for asymmetric di-methyl PABP1). The test is classed as cell-based. Particulars: Homo sapiens, 48 hours incubation, read-out: Cellular IC50. In short, it runs like this: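 RKO cells treated 48 h at 37 °C, then fixed, methanol-permeabilized and probed for asymmetric di-methyl PABP1 (16 h, 4 °C) with DRAQ5 counterstain; 800/700 nm intensity ratio read.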

We go through 13 compounds from patent publication US20170283440A1, “CARM1 INHIBITORS AND USES THEREOF” (Epizyme, Inc., priority 2014, published 2017).

Molecules are shown by their SMILES.

T1 sequence (Q86X55 other isoform, or with tags, fused parts or gaps): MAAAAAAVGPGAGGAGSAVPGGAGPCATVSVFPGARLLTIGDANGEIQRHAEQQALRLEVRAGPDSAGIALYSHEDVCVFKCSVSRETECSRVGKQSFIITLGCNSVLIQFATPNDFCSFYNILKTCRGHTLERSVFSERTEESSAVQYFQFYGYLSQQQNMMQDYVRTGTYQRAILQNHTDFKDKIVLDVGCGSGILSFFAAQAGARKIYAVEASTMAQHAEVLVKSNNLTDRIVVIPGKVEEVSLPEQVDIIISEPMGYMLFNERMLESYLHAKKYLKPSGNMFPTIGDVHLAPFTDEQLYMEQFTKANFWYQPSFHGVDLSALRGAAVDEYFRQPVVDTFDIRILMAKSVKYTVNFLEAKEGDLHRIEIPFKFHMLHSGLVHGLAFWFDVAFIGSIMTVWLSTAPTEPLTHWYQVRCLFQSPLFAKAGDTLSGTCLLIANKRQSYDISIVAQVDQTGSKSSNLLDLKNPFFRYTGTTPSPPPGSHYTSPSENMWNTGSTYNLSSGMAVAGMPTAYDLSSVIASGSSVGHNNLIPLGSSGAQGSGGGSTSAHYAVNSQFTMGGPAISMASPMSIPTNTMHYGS

What is called IC50 is the point on the concentration scale where inhibition reaches its midpoint. Regarding `CNCC(O)COc1cc(Cl)cc(-c2cc(N(C)[C@H]3CCOC3)n3ncc(C(C)C)c3n2)c1` (some centres unmarked) [Example 41-6], the IC50 was less than 100 nM at Human CARM1 (PRMT4) and more than 20 µM in test [1].

`CNCC(O)COc1cccc(-c2nc(NCc3c(C)cc(C)[nH]c3=O)c3cnn(C4CC4)c3n2)c1` (centres unmarked) [Example 42-5]: the IC50 was 100 to 1000 nM at Human CARM1 (PRMT4) and more than 20 µM in test [1].

For `CNCC(O)COc1cccc(-c2nc(NCc3cn4ccsc4n3)c3cnn(C4CC4)c3n2)c1` (centres unmarked) [Example 43-5], the IC50 is less than 100 nM on Human CARM1 (PRMT4) and more than 20 µM in test [1].

As to `CNCC(O)COc1cc(OC)cc(-c2cc(N3CC4CCC(C3)O4)n3ncc(C(C)C)c3n2)c1` (centres unmarked) [Example 43-6], the IC50 at Human CARM1 (PRMT4) is 100 to 1000 nM; in test [1], more than 20 µM.

As to `CNCC(O)COc1cccc(-c2nc(NCc3cn4cccc(C)c4n3)c3cnn(C4CC4)c3n2)c1` (centres unmarked) [Example 44-5], the 50% inhibitory concentration (IC50) fell in the range of 100 to 1000 nM at Human CARM1 (PRMT4) and 10 to 20 µM in test [1].

With `CNCC(O)COc1cc(Cl)cc(-c2cc(N3C4CCC3COC4)n3ncc(C(C)C)c3n2)c1` (centres unmarked) [Example 46-6], the figures for the IC50 (at Human CARM1 (PRMT4); in test [1]) were less than 100 nM and more than 20 µM, respectively.

Regarding `CNCC(O)COc1cc(Cl)cc(-c2cc(NC3CCOCC3)n3ncc(C(C)(C)C)c3n2)c1` (centres unmarked) [Example 48-6], the IC50 at Human CARM1 (PRMT4) is less than 100 nM; in test [1] it was more than 20 µM.

As for `CNCC(O)COc1cc(OC)cc(-c2cc(N3CC4(CCOCC4)C3)n3ncc(C(C)C)c3n2)c1` (centres unmarked) [Example 49-6], the figures for the IC50 (on Human CARM1 (PRMT4); in test [1]) were 100 to 1000 nM and more than 20 µM, respectively.

Consider `CNCC(O)COc1cc(Cl)cc(-c2cc(N3CC4(CCOCC4)C3)n3ncc(C(C)C)c3n2)c1` (centres unmarked) [Example 50-6], for which the values for the half-maximal inhibitory concentration (IC50) (on Human CARM1 (PRMT4); in test [1]) were less than 100 nM and more than 20 µM, respectively.

With `CNCC(O)COc1cc(OC)cc(-c2cc(N3CC(CO)(CCl)C3)n3ncc(C(C)C)c3n2)c1` (centres unmarked) [Example 52-6], the IC50 at Human CARM1 (PRMT4) was less than 100 nM; in test [1], more than 20 µM.

Regarding `CNCC(O)COc1cc(Cl)cc(-c2cc(N3CC(CO)(CCl)C3)n3ncc(C(C)C)c3n2)c1` (centres unmarked) [Example 53-6], the figures for the IC50 (on Human CARM1 (PRMT4); in test [1]) were less than 100 nM and more than 20 µM, respectively.

On to `CNCC(O)COc1cccc(-c2cc(NCCCCCNC(=O)c3ccn(C)n3)c3cnn(C(C)C)c3n2)c1` (centres unmarked) [Example 64-1], for which the figures for the IC50 (at Human CARM1 (PRMT4); in test [1]) were 100 to 1000 nM and 10 to 20 µM, respectively.

Take `CNCC(O)COc1cccc(-c2cc(NCCCCCCNC(=O)c3ccn(C)n3)c3cnn(C(C)C)c3n2)c1` (centres unmarked) [Example 66-1]: the half-inhibitory concentration (IC50) was less than 100 nM at Human CARM1 (PRMT4) and more than 20 µM in test [1].
